Laboratory results: US10195245B2, “Tetrapeptides derived from human C-X-C chemokines useful for treatment of various skin conditions” (Helix Biomedix, Inc., priority 2013, dated 2019)
“Also recorded” adds a separate entry of the source. Marks after values point to notes of the source that are not given here. Each block holds one compound with its values, some of them ahead of it. Where a SMILES comes first, the peptide text is derived from it.

Key:
Type in all cases: cell-based
[1] = tested on: human umbilical vein endothelial cells (HUVEC); assay: In vitro angiogenesis assay (capillary tube formation); design: key to Promote tube formation 3 hrs / Promote tube formation 5 hrs: 0: Individual cells, well separated; 1: Cells begin to migrate and align themselves; 2: Capillary tubes visible, no sprouting; 3: Sprouting of new capillary tubes visible; 4: Closed polygons begin to form; 5: Complex mesh like structures develop
Description: Angiogenesis, the formation of new capillaries from the pre-existing vascular network, is an essential step of wound repair. The peptides generated in the current invention, SEQ ID NOs 1-7, also stimulate capillary tube formation. The in vitro angiogenesis assay uses human umbilical vein endothelial cells (HUVEC) to measurer a series of events that lead to forming new capillary tubes. Upon induction, the HUVEC undergoes migration to align then sprouting from individual cells. The sprouting event leads to formation of new capillary tubes which further develop to form closed polygons. Eventually a complex mesh like structure is developed. Human cathelicidin peptide, LL-37, is a well-studied example to promote angiogenesis. It is used as positive control in the assessment. […] Compared to LL-37, SEQ ID NOs.
The angiogenesis assay was performed using the In Vitra Angiogenesis Assay Kit purchased from Millipore. Briefly, matrix layer was prepared with ECMATRIX™ solution according to the manufacturer's instructions. The human umbilical vein endothelial cells (HUVEC) (ATCC, Manassas, Va.) were cultured in complete F12K medium (ATCC, Manassas, Va.) supplemented with 0.1 mg/ml of heparin (Sigma-Aldrich), 30 ug/ml of ECGS (Sigma-Aldrich) and 10% fetal bovine serum (ATCC, Manassas, Va.). The cells were harvested and resuspended in complete media. The peptide was mixed with cells at approximately 5×10^3-1×10^4 cells per well in a 96-well plate prior to seeding cells onto the surface of the polymerized ECMATRIX™ solution. The plate was incubated at […], 5% CO2 for up to 9-12 hr. Tube formation was inspected under an inverted light microscope periodically and pictures were taken at 3 and 5 hr intervals and assigned a numerical value to each pattern as shown below.

[2] = tested on: S. aureus LTA induced IL-6 expression on human skin keratinocytes; assay: Blocking LTA induced IL-6 expression (ELISA); conditions: LTA 10 ug/ml pre-incubated with peptide 50 μg/ml 30 min, 24 hrs
Description: The Gram-positive cell wall component peptidoglycan (PGN) is well known to stimulate pro-inflammatory cytokine expression. Lipoteichoic acid (LTA) is the key molecule in PGN that causes a concentration- and time-dependent increase in pro-inflammatory signals including nitric oxide synthase (iNOS), cyclooxygenase-2 (COX-2), IL-1 beta, TNF-alpha and IL-6 up-regulation (Lin et al., 2010). We therefore pretreated LTA with the inventive peptides and then assess the IL-6 stimulatory activity upon contact with human skin keratinocytes. […] It is very likely that the positively charged residues of the tetrapeptides bind to the negatively charged LTA thus blocking the interaction of LTA with its receptors. This is significant as bacterial cell wall components have been implicated in inflammatory skin conditions such as acne, rosacea, atopic dermatitis etc.
S. aureus LTA induced IL-6 stimulation on human epidermal keratinocytes. Human keratinocytes were grown to >80% confluence in serum free keratinocyte cultural media. S. aureus LTA 10 ug/ml was pre-incubated with each peptide (50 μg/ml) at room temperature for 30 min then the mixture was transferred to keratinocyte culture. The treatment was allowed for 24 hrs. The supernatant was removed. […]

[3] = MTT cytotoxicity test on keratinocytes; conditions: human, normal human epidermal keratinocytes, 50 to 500 μg/ml tested
Experimental: C-X-C chemokines are well known for their chemotactic activity toward many cell types. […] The experiment was performed in the serum-free keratinocyte growth medium in the absence of supplement in order to restrain cells proliferation. The wounded area was examined by phase-contrast microscopy at the indicated times. […] At 20 μg/ml, the percentage of wound closure induced by SEQ IDs 1, 2, 3, 4, 5, 6 and 7 ranges from 165% to 240% compared to that of PBS treated which was taken as 100% (Table 1). […] To confirm that the peptides are not toxic to the keratinocytes at the concentrations tested for scratch wound closure all peptides were subjected to the MTT cytotoxicity test. None of the peptides were cytotoxic to normal skin keratinocyte in vitro after 24 hrs incubation at concentrations up to 500 ug/ml.
To make sure the peptides are not cytotoxic to the cells, normal human epidermal keratinocytes were seeded to a 96-well plate. The plate was incubated at 37° C. in the presence of 5% CO2 to allow the cells to grow to >95% confluent. Peptides are diluted into stock solutions at concentrations of 50, 100, 200, and 500 μg/ml. The cell culture media are replaced with fresh media containing peptides at various concentrations then incubated at 37° C. and 5% CO2 for 24 hr. At the end of treatment the cell viability was measured using MTT assay kit purchased from ATCC (Manassas Va.).

[4] = tested on: SOR-300-FT human psoriasis tissue construct; assay: qPCR gene expression on SOR-300-FT psoriasis tissue
Description: SOR-300-FT, developed by MatTek Corporation (Ashland Mass.), is a highly differentiated in vitro psoriasis tissue comprised of normal, human-derived keratinocytes and psoriatic fibroblasts Morphologically, the tissue is of uniform thickness and it expresses increased levels of hyperproliferated cells as well as pro-inflammatory markers such as psoriasin, elafin, human beta-defensin-2, and LL-37 etc (Ayehunie et al., 2012). The pro-inflammatory condition of the tissue prompts us to test the inventive peptides to see if they modulate the inflammatory response. Due to the high cost of the tissue model, a representative peptide SEQ ID NO 1, HB2233, was selected as a proof of concept study using SOR-300-FT tissue model. The SOR-300-FT tissues were treated with HB2233 in duplicate at 200 μg/ml. Total 12 gene markers associated with psoriasis condition are studied. […] Both HB2233 and calcipotriol down-regulate Ki67 expression which is responsible for the hyperproliferation and early maturation of keratinocytes in psoriasis skin.
SOR-300-FT™ tissues were transferred to 6-well plates containing 0.9 ml of pre-warmed assay medium and equilibrated to standard culture conditions (37° C., 5% CO2) for 1 hour. After the 1 hr equilibration, the tissues were re-fed with fresh medium as follow: 1) for the 24 hr time point, tissues were feed with 0.9 ml of medium and 2) for time points >24 hr, tissues were feed with 5 ml of culture medium by placing the cell culture inserts on top of the washers (Part # EPI-WSHR, MatTek Corporation). Next, 50 μl of the test articles were applied topically to the psoriatic tissues (n=3) and the test article was added to the culture medium at the 3 concentrations chosen by the Sponsor. At times 24, and 48 hours: a) the tissues were rinsed topically 3× with 300-400 μL of PBS, b) the inserts containing the tissues were held tightly with sterile forceps and the test article was rinsed gently by immersing the insert into PBS and decant medium from insert, and c) fresh test article was re-applied to the tissue immediately after rinsing and decanting (50 μL topically). Analysis was performed at t=72 hr (3× repeat applications). cDNA was generated using the Qiagen RT2 First Strand Kit (cat#330401). Relative gene expression was measured using Qiagen RT2 SYBR Green qPCR Mastermix (cat#330502) and Qiagen RT2 primers. Analysis was carried out using Bio-Rad CFX software.

[5] = 72 hr, HB2233 at 200 μg/ml, listed as calcipotriol

Compound: LL-37 (LLGDFFRKSKEKIGKEFKRIVQRIKDFLRNLVPRTES; Antibacterial peptide LL-37; UniProt P49913 134-170, looked up) [Human cathelicidin peptide, used as positive control to promote angiogenesis]
- capillary tube formation on HUVEC (in words) ([1]; 3 and 5 hr treatment): sprouting of new capillary tubes becomes visible just after 3 hr; also recorded: After 5 hr treatment with LL-37, the closed polygons are formed; also recorded: also stimulate angiogenesis
- Promote tube formation 3 hrs ([1]; 3 hrs, values ≥3 considered significant induction of angiogenesis): 3*
- Promote tube formation 5 hrs ([1]; 5 hrs, values ≥3 considered significant induction of angiogenesis): 4*

Compound: Lipoteichoic acid [LTA alone]
- IL-6 expression (arbitrary) [2]: 1.248 arbitrary

Compound: CC[C@H](C)[C@H](N)C(=O)N[C@@H](CCC(=O)O)C(=O)N[C@@H](CCCCN)C(=O)N[C@@H](CCSC)C(=O)O [HB2233, IEKM] (H-IEKM-OH)
- CC50 at 24 h [3]: > 500 µg/mL

Compound: CC[C@H](C)[C@H](N)C(=O)N[C@@H](CCCCN)C(=O)N[C@@H](CCCCN)C(=O)N[C@@H](CC(C)C)C(=O)O [HB2274, IKKL] (H-IKKL-OH; N-terminus and C-terminus assumed)
- CC50 at 24 h [3]: > 500 µg/mL

- Fold change in gene expression: Ki-67 [4, 5]: down-regulate
Compound: C=C1/C(=C\C=C2/CCC[C@]3(C)[C@@H]([C@H](C)/C=C/[C@@H](O)C4CC4)CC[C@@H]23)C[C@@H](O)C[C@@H]1O [Calcipotriol, calcipotriol]
- downregulation of HBD-2 ([4]; 72 hr treatment, qPCR): 9.0 fold
- downregulation of psoriasin ([4]; 72 hr treatment, qPCR): 2.3 fold
- Fold change in gene expression: Calgranulin C ([4]; 72 hr, HB2233 at 200 μg/ml): −1.3 fold
- Fold change in gene expression: ENA-78 ([4]; 72 hr, HB2233 at 200 μg/ml): 1.6 fold
- Fold change in gene expression: Elafin ([4]; 72 hr, HB2233 at 200 μg/ml): −1.4 fold
- Fold change in gene expression: GRO alpha ([4]; 72 hr, HB2233 at 200 μg/ml): 1.3 fold
- Fold change in gene expression: HBD-2 ([4]; 72 hr, HB2233 at 200 μg/ml): −9.0 fold
- Fold change in gene expression: IL-8 ([4]; 72 hr, HB2233 at 200 μg/ml): 1.3 fold
- Fold change in gene expression: Ki-67 ([4]; 72 hr, HB2233 at 200 μg/ml): −1.1 fold
- Fold change in gene expression: LL-37 ([4]; 72 hr, HB2233 at 200 μg/ml): 5.1 fold
- Fold change in gene expression: P63 ([4]; 72 hr, HB2233 at 200 μg/ml): −1.4 fold
- Fold change in gene expression: Psoriasin ([4]; 72 hr, HB2233 at 200 μg/ml): −2.3 fold
- Fold change in gene expression: SLPI ([4]; 72 hr, HB2233 at 200 μg/ml): 2.1 fold
- Fold change in gene expression: Transglutaminase ([4]; 72 hr, HB2233 at 200 μg/ml): 1.5 fold
- Fold change in gene expression: ENA-78 [4, 5]: does not seem to affect
- Fold change in gene expression: GRO alpha [4, 5]: does not seem to affect

Compound: CC[C@H](C)[C@H](N)C(=O)N[C@@H](CCC(N)=O)C(=O)N[C@@H](CCCCN)C(=O)N[C@H](C(=O)O)[C@@H](C)CC [HB2271, IQKI] (H-IQKI-OH; N-terminus and C-terminus assumed)
- CC50 at 24 h [3]: > 500 µg/mL

Compound: CC[C@H](C)[C@H](N)C(=O)N[C@@H](CCC(=O)O)C(=O)N[C@@H](CCCCN)C(=O)N[C@H](C(=O)O)[C@@H](C)CC [HB2270, IEKI] (H-IEKI-OH; N-terminus and C-terminus assumed)
- CC50 at 24 h [3]: > 500 µg/mL

Compound: CC(C)[C@H](N)C(=O)N[C@@H](CCC(=O)O)C(=O)N[C@@H](CCCCN)C(=O)N[C@@H](Cc1ccccc1)C(=O)O [HB2267, VEKF] (H-VEKF-OH; N-terminus and C-terminus assumed)
- CC50 at 24 h [3]: > 500 µg/mL

Compound: CC[C@H](C)[C@H](N)C(=O)N[C@@H](CCCCN)C(=O)N[C@@H](CCCCN)C(=O)N[C@@H](Cc1c[nH]c2ccccc12)C(=O)O [HB2272, IKKW] (H-IKKW-OH; N-terminus and C-terminus assumed)
- CC50 at 24 h [3]: > 500 µg/mL

Compound: CC[C@H](C)[C@H](N)C(=O)N[C@@H](CCCCN)C(=O)N[C@@H](CCCCN)C(=O)N[C@H](C(=O)O)C(C)C [HB2273, IKKV] (H-IKKV-OH; N-terminus and C-terminus assumed)
- CC50 at 24 h [3]: > 500 µg/mL
